US20160296438A1, “PROTECTIVE ACTION OF LUTEIN AGAINST BLUE LIGHT ON HUMAN SKIN CELL LINES” (Kemin Industries, Inc., priority 2015, published 2016)
Entries after “also recorded” stand apart in the source; their conditions may differ.

Columns and labels:
[1] = test system: human dermal fibroblasts (HDF) cells; test: Intracellular reactive oxygen species (ROS) assay (DCFH-DA) under blue light; type: cell-based; settings: lutein at 50, 100 and 200 ppm, blue LED 476 nm, 9 hours, FIG. 6
Description: (§1) Reactive Oxygen Species (ROS) assay. ROS activity was measured using Oxiselect™ intracellular ROS assay kit (Cell BioLabs, San Diego, Calif., catalogue number STA 342, lot #59342025). The cells were seeded into 96-well microplates at a density of 100,000 cells/mL (200 μL). Both the cell lines were treated with cell permeable fluorogenic probe 2′, 7′-dichlorodihydrofluorescin diacetate (DCFH-DA). Cells were washed with D-PBS for couple of times and treated with lutein at different concentrations and exposed to blue LED lights (476 nm) for 9 hours (Cells that were not treated with lutein will serve as blue light control). Cells treated with pure DMSO serves as a control for DMSO effect in presence and absence of blue light. […] After 5 minutes incubation, 150 μL of this medium was transferred to a black wall 96-well plate and fluorescence was measured. […] Intracellular reactive oxygen species (ROS) activity and the oxidative stress was measured using Oxiselect™ intracellular ROS assay kit which can measure hydroxyl, peroxyl and other free radical in the cells. […] DCFH will be rapidly oxidized to fluorescent […] (DCF-green fluorescence) in presence of reactive oxygen species. The fluorescence intensity is proportional to the ROS levels within the cell cytosol. […]

[2] = test system: human epidermal keratinocytes (HEK) cells; test: as above; type: cell-based; settings: lutein at 50, 100 and 200 ppm, blue LED 476 nm, 9 hours, FIG. 5
Description: as §1

[3] = test system: human dermal fibroblasts (HDF) cells; test: Blue light shielding study with lutein, cell viability/proliferation by MTS assay; type: cell-based; settings: lutein solution in DMSO at 50, 100 and 200 ppm as shield plate on top, blue LED 476 nm, 9 hours, p<0.05, FIG. 3
Description: (§2) Cell culture studies. All the cell culture studies were performed using HEK cells [HEK001 (ATCC® CRL-2404™) lot #61331463] continuous cell lines and Human Skin Fibroblast (HDF) [CCD1093Sk (ATCC® CRL2115™) lot #3296816] cell lines [ATCC, Manassas, Va.].
(§3) The growth medium used for HEK cells was prepared according to ATCC guidelines. Growth media consisting of keratinocyte serum free medium (GIBCO-BRL 17005042, lot #1638561) with 5 ng/mL human recombinant epidermal growth factor (EGF) (ATCC, lot # 1584416) and 2 mM L-glutamine (ATCC, lot #62195752) (without bovine pituitary extract and serum) and supplemented with penicillin (10000 units) and streptomycin (10 mg/mL) solution (Gibco, lot #1469707). The growth medium used for HDF cells consisting of eagle's Minimum Essential Medium (EMEM) (ATCC-302003, lot #62028896) with 10% FBS and supplemented with penicillin (10000 units) and streptomycin (10 mg/mL) solution. Cells were grown in cell culture flasks (75 cm^2) [Fisher Scientific, catalog number 10-126-37] to approximately 80% confluence in 5% CO2 environment incubator (NuAire, MN) maintained at 37° C. Confluent cells were passed into subsequent cultures by trypsinization following neutralization and centrifugation. […]
(§4) MTS assay. […] After incubation the absorbance at 490 nm was recorded using microplate Reader (SpectraMax® Me5, Molecular Devices, LLC. Sunnyvale, Calif.). […]

[4] = test system: human epidermal keratinocytes (HEK) cells; test: as above; type: cell-based; settings: lutein solution in DMSO at 50, 100 and 200 ppm as shield plate on top, blue LED 476 nm, 9 hours, p<0.05, FIG. 2
Description: as §2, §3, §4

[5] = Solubility of lutein in cell culture media and DMSO; type: physicochemical
Description: FloraGLO™ Lutein (production number M080033, lot number 1405102477, manufactured date Jun. 04, 2014) was solubilized in sterile dimethyl sulfoxide (DMSO) [ATCC, lot #61908420] with intermittent shaking for at least 6 hours to get a stock of 2 mg/mL solution. From the stock; 2.5, 5 and 10 μl of the lutein solution was added to wells containing 100 μl media to get a final lutein concentration of 50, 100 and 200 ppm in corresponding wells. Hydrogen peroxide (H2O2) [Sigma, lot #WKBS8306V] solution at 1 mM was served as a positive control in all the studies. Pure DMSO at 2.5, 5 and 10 μl was added to few wells to have the DMSO control.
FloraGLO™ Lutein was solubilized in DMSO and applied to cell cultures. […] In our earlier attempts for cell viability assays with various detection mechanisms, this high concentrations of DMSO might be interacting with cell culture membranes and causing a reduction in cell proliferation and decrease in cell viability compared to controls.

CC1=C[C@H](O)CC(C)(C)[C@H]1/C=C/C(C)=C/C=C/C(C)=C/C=C/C=C(C)/C=C/C=C(C)/C=C/C1=C(C)C[C@@H](O)CC1(C)C [lutein]
fluorescence signal (DCF, generation of ROS) on blue light exposure [1]: low and prevent the generation of reactive oxygen species | fluorescence signal (DCF, generation of ROS) on blue light exposure [2]: low and prevent the generation of reactive oxygen species | cell proliferation (% cell viability) compared to blue light control [3]: significantly improved; also recorded: shielded the blue light effectively | cell proliferation (% cell viability) compared to blue light control [4]: significantly improved; also recorded: shielded the blue light effectively | solubility in DMSO ([5]; DMSO): limited solubility | solubility in cell culture compatible media ([5]; cell culture compatible media): does not dissolve
